Reference: US4477440A, “Renin inhibitors containing an n-terminal disulfide cycle” (Merck & Co., Inc., priority 1983, dated 1984)
Positions of bridges follow the written chain, without caps; N, C: chain ends. Non-standard residues stand in square brackets, D forms with d. Residues, ends and D or L forms follow the SMILES beside them. Sta = CC(C)C[C@H](N)[C@@H](O)CC(=O)O; hCys = N[C@@H](CCS)C(=O)O

Tests used:
human kidney renin = molecular target: T1, human kidney renin (Homo sapiens, UniProt P00797); experiment: Human renin inhibition; assay type: biochemical; conditions: purified human kidney renin; dissociation constant of enzyme-inhibitor complex
T1 construct: human kidney renin purified as described in Bangham; from tissue; host or cells: human kidney
T1 sequence (P00797 67-406): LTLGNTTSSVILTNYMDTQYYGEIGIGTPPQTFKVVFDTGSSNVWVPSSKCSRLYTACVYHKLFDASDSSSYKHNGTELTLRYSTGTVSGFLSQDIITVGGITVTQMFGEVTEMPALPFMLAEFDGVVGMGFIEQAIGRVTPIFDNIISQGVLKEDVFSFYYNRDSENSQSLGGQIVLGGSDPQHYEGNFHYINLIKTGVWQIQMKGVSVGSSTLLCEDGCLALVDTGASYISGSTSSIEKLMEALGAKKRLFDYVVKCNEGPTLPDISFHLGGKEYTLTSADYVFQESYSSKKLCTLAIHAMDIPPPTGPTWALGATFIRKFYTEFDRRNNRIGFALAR
Protocol: An assay was carried out in order to determine the inhibitory potency of the peptides of the present invention. The assay measured the inhibition of human kidney renin purified as described in Bangham, D. R., Robertson, I., Robinson, J. I. S., Robinson, C. J., and Tree, M., Clinical Science and Molecular Medicine, 48 (Supp. 2): 136s-159s (1975), and further purified by affinity chromatography on pepstatin-aminohexyl-Sepharase as described in Poe, M., Wu., J. K., Florance, J. R., Radkey, J. A., Bennett, C. D., and Hoogsteen, K., J. Biol. Chem. (1982, in press). The assay was also in accordance with Poe et al. cited above. Results are expressed as KI values, which refer to the dissociation constant of the inhibited enzyme-inhibitor complex. This KI value was obtained as described above. Pepstatin was used as an active control.

hog renin = conditions: after injection of hog renin into nephrectomized rats; cited from earlier work

Row | Compound | Ki (human kidney renin) | blood pressure in vivo (hog renin)
1 | COC(=O)[C@H](Cc1ccccc1)NC(=O)[C@H](CC(C)C)NC(=O)C[C@H](O)[C@H](CC(C)C)NC(=O)[C@@H]1CCSSCC[C@H](N)C(=O)N2CCC[C@H]2C(=O)N[C@@H](Cc2ccccc2)C(=O)N1 (H-[hCys]PF[hCys][Sta]LF-OMe; disulfide 1-4) | 0.41 µM | –
2 | pepstatin | – | reduce blood pressure in vivo
